In PubChem BioAssay (NCI):
Several values for one entry are separate records, joined by “and”; a condition that tells them apart may be missing. Equal entries are not always repeated.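 These data come from cells grown in 96-well plates and exposed to compound for 48 hours at five concentrations. GI50: concentration for 50% inhibition of growth. TGI is the concentration that stops growth completely.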

Key:
Assay in all cases: NCI anticancer screen, dose series, 48 h
[1] = system: OVCAR-3 ovarian
[2] = system: UO-31 renal
[3] = system: SNB-75 CNS
[4] = system: HCC-2998 colon
[5] = system: U251 CNS
[6] = system: RXF 393 renal
[7] = system: SK-MEL-2 melanoma
[8] = system: NCI-H226 lung
[9] = system: OVCAR-5 ovarian
[10] = system: KM12 colon

Row | Structure (SMILES) | TGI [1] [µM] | TGI [2] | TGI [3] | TGI [4] [µM] | TGI [5] [µM] | TGI [6] | TGI [7] [µM] | TGI [8] [µM] | TGI [9] [µM] | TGI [10] [µM] | GI50 [1] [µM] | GI50 [2] [µM] | GI50 [3] [µM] | GI50 [4] [µM] | GI50 [5] [µM] | GI50 [6] [µM] | GI50 [7] [µM] | GI50 [8] [µM] | GI50 [9] [µM] | GI50 [10] [µM]
1 | COc1ccc(OC)c2c3c(ccc12)C(c1ccccc1)OC3=O (configuration not stated) | 79.9 | > 100 µM | > 100 µM | > 100 | > 100 | > 100 µM | > 100 | > 100 | > 100 | > 100 | – | – | – | – | – | – | – | – | – | –
2 | CC1CCC2N(C1)CC1C3(O)CC45OC6(O)C(O)CCC4(C)C6CCC5C3(O)CC(O)C1(O)C2(C)O (configuration not stated) | > 100 | > 100 µM | > 100 µM | > 100 | > 100 | > 100 µM | > 100 | > 100 | > 100 | > 100 | – | – | – | – | – | – | – | – | – | –
3 | COc1cnc2cc(C(=O)O)c3ccccc3c2c1 | > 100 | > 100 µM | > 100 µM | > 100 | > 100 | > 100 µM | > 100 | > 100 | > 100 | > 100 | – | – | – | – | – | – | – | – | – | –
4 | COc1cccc(NC(=O)C(=O)C(C(C)=O)c2nc3ccc(Cl)cc3[nH]c2=O)c1 (configuration not stated) | > 100 | > 100 µM | > 100 µM | > 100 | > 100 | > 100 µM | > 100 | > 100 | > 100 | > 100 | – | – | – | – | – | – | – | – | – | –
5 | O=C(c1ccc(Cl)cc1)C1OC12C(=O)Nc1ccccc12 (configuration not stated) | > 55.7 | 29.4 µM | 32 µM | 34.1 | 32 | 29.6 µM | 22.3 | 40.7 | 36.2 | 32.5 | – | – | – | – | – | – | – | – | – | –
6 | COc1ccc2nc3ccccc3c(NCCCCN(C)CCCl)c2c1 | 0.712 | 1.22 µM | 0.504 µM | 0.467 | 0.251 | 0.362 µM | 0.666 | 0.575 | 1.08 | 0.4 | – | – | – | – | – | – | – | – | – | –
7 | O=C(Cc1ccccc1)NN1C(=O)/C(=C\c2ccc(O)cc2)SC1=Nc1ccccc1 | > 100 | > 100 µM | > 100 µM | > 100 | > 100 | > 100 µM | > 100 | > 100 | > 100 | > 100 | – | – | – | – | – | – | – | – | – | –
8 | CCOC(=O)[C@H]1Nc2ccccc2C2c3ccccc3CC21 (some centres not stated) | > 100 | > 100 µM | > 100 µM | > 100 | > 100 | 31.1 µM | > 100 | > 100 | > 100 | > 100 | – | – | – | – | – | – | – | – | – | –
9 | COc1ccc(CCc2cc(OC)c(OC)c(OC)c2)cc1 | 0.523 | 83.2 µM | > 100 µM | 2.82 | 2.73 | 0.057 µM | 24.2 | 7.46 | > 100 | 5.77 | – | – | – | – | – | – | – | – | – | –
10 | COC(=O)/C(=N\NC(N)=S)C(C#N)c1ccccc1 (configuration not stated) | > 100 | > 100 µM | > 100 µM | > 100 | > 100 | > 100 µM | > 100 | > 100 | > 100 | > 100 | – | – | – | – | – | – | – | – | – | –
11 | Cc1cc(Cl)cc2c1NC(=O)C2=O (tested in a mixture with another compound) | > 100 | > 100 µM | > 100 µM | > 100 | > 100 | > 100 µM | > 100 | > 100 | > 100 | > 100 | – | – | – | – | – | – | – | – | – | –
12 | CC(=O)N(Cc1ccccc1)c1ccccc1I(=O)=O | > 100 | > 100 µM | > 100 µM | > 100 | > 100 | > 100 µM | > 100 | > 100 | > 100 | > 100 | 33.9 | 38 | 50.9 | 99.3 | 34.5 | > 100 | 63.6 | > 100 | > 100 | 42
13 | CC/C=C\C/C=C\C[C@H](O)C/C=C1/C(=O)C=C[C@@H]1C/C=C\CCCC(=O)OC | 2.2 | 3.03 µM | 24.6 µM | 3.48 | 2.83 | 3.61 µM | 3.79 | 3.79 | 6.94 | 5.02 | 0.799 | 1.55 | 11.3 | 2.03 | 1.45 | 1.97 | 1.72 | 1.92 | 2.75 | 1.8
14 | Cc1ccc(NC(=O)CC(=O)N2N=C(N(CCC#N)c3cccc(C)c3)CC2c2ccccc2)cc1 (configuration not stated) | > 100 | > 100 µM | > 100 µM | > 100 | > 100 | > 100 µM | > 100 | > 100 | > 100 | > 100 | – | – | – | – | – | – | – | – | – | –
15 | Cc1nc(-n2nc(-c3ccccc3)cc2-c2ccccc2)sc1C(/C=C/c1ccc([N+](=O)[O-])cc1)=N/NC(=O)c1ccncc1 | 42.5 | 90.4 µM | > 100 µM | 26.6 | > 100 | 76.6 µM | 66.1 | 56.9 | > 100 | 22.4 | – | – | – | – | – | – | – | – | – | –
16 | Nc1ccc(S(=O)(=O)Nc2cnc3c(Cl)cccc3n2)cc1 | 411 | > 56.2 µM and 742 µM | > 95 µM and 682 µM | > 663 | > 750 | > 31.6 µM and 460 µM | 707 | > 750 | > 750 | 709 | – | > 55.8 | 51.6 | 149 | 68 | 9.52 | – | > 75.6 | > 80.7 | 99.6
17 | Cc1cc(Cl)ccc1Nc1nc(C(F)(F)F)ccc1C(=O)N1CCN(c2cccc(Cl)c2)CC1 | > 100 | > 100 µM | 87.5 µM | > 100 | > 100 | > 100 µM | > 100 | > 100 | > 100 | > 100 | 7.82 | 67.3 | 1.11 | 49.3 | > 100 | > 100 | > 100 | > 100 | > 100 | > 100
18 | CCOc1cc(-c2ccc[nH]2)[nH]c1/C=C1\N=C(C)C(C(=O)OC)=C1C | 1.04 | 0.143 µM | 0.3 µM | 1.34 | 0.814 | 0.0881 µM | 0.0893 | 0.044 | 1.68 | 1.35 | 0.0329 | 0.0252 | 0.0364 | 0.0442 | 0.0319 | 0.0219 | 0.0256 | 0.0185 | 0.0552 | 0.0251
19 | COc1cc(/C=C(\C#N)C(N)=C(C#N)C#N)cc(O)c1O | > 100 | > 100 µM | > 100 µM | > 100 | > 100 | > 100 µM | > 100 | > 100 | > 100 | > 100 | – | – | – | – | – | – | – | – | – | –
20 | COC(=O)/C(=N/NC(N)=O)C(C(=O)OC)C(=O)C(=O)Nc1ccc(Cl)cc1 (configuration not stated) | > 100 | > 100 µM | > 100 µM | > 100 | > 100 | > 100 µM | > 100 | > 100 | > 100 | > 100 | – | – | – | – | – | – | – | – | – | –
21 | CCCCCCCCCCCCCCCCOC(=O)c1cc(O)cc(C(=O)OCCCCCCCCCCCCCCCC)c1 | > 100 | > 100 µM | > 100 µM | > 100 | > 100 | > 100 µM | > 100 | > 100 | > 100 | > 100 | – | – | – | – | – | – | – | – | – | –
22 | COc1cc(NC(=O)Nc2cnc(Nc3ccc(N4CCOCC4)cc3)nc2Oc2cccc(OC)c2)cc(OC)c1 | 3.25 | 6.74 µM | 4.69 µM | 3.62 | 5.05 | 1.82 µM | 8.67 | 8.48 | 41.6 | 22.5 | 1.27 | 1.3 | 1.1 | 1.32 | 1.63 | 0.887 | 1.74 | 1.88 | 6.49 | 2.19
23 | O=c1[nH]c2ccccc2n1-c1n[nH]c2ccccc12 | > 100 | > 100 µM | > 100 µM | > 100 | > 100 | > 100 µM | > 100 | 55.4 | > 100 | > 100 | 27.5 | 12.5 | 41.9 | 31.9 | 31.3 | 43.6 | 29.3 | 18.9 | 33.6 | 3.21
24 | O=C(Nc1ccccc1C(=O)N/N=C(\c1ccccc1)c1ccccn1)c1ccc(F)cc1 | > 100 | 7.25 µM | > 100 µM | > 100 | > 100 | 9.17 µM | > 100 | – | > 100 | > 100 | 0.211 | 0.0828 | 4.81 | 0.321 | 0.297 | 0.576 | 7.01 | 0.366 | 0.671 | 0.421
25 | CCCCCCCCCCCCCc1nn[nH]n1 | 32.6 | 29.5 µM | 36 µM | 33.7 | 32.8 | 43.4 µM | 33.1 | 45.5 | 33 | 32.9 | – | – | – | – | – | – | – | – | – | –
26 | COc1ccccc1NC(=O)C(CC(C(=O)Nc1ccccc1OC)/C(C)=N/Nc1ccc([N+](=O)[O-])cc1[N+](=O)[O-])/C(C)=N/Nc1ccc([N+](=O)[O-])cc1[N+](=O)[O-] (configuration not stated) | > 100 | > 100 µM | > 100 µM | > 100 | > 100 | > 100 µM | > 100 | > 100 | > 100 | > 100 | – | – | – | – | – | – | – | – | – | –
27 | O=C(NCCCCCCCNC(=O)OCc1ccc2c(Cl)cc(Cl)c(O)c2n1)OCc1ccc2c(Cl)cc(Cl)c(O)c2n1 | 0.838 | 1.29 µM | 2.43 µM | 3.14 | 3.09 | 2.13 µM | 2.78 | 1.59 | 3.32 | 2.87 | 0.298 | 0.321 | 0.905 | 1.65 | 1.6 | 0.812 | 1.33 | 0.557 | 1.69 | 1.18
28 | CN1CCN(c2nc(-c3ccncc3)nc3sc4c(c23)CCCCCC4)CC1 | 27 | 8.85 µM | 7.75 µM | 13.2 | 25 | 19 µM | 28.2 | 34.2 | 22.9 | 28 | 13.5 | 1.57 | 1.4 | 3.91 | 9.29 | 4.08 | 14.6 | 10.4 | 10.8 | 13.4
29 | O=S(=O)(c1ccc(O)c(C=Nc2ccc(Cl)cc2)c1)c1ccc(O)c(C=Nc2ccc(Cl)cc2)c1 | > 100 | > 100 µM | > 100 µM | > 100 | > 100 | > 100 µM | > 100 | > 100 | > 100 | > 100 | – | – | – | – | – | – | – | – | – | –
